# Laboratory results from ChEMBL document CHEMBL5625227, “Discovery and optimization of 2,3-diaryl-1,3-thiazolidin-4-one-based derivatives as potent and selective cytotoxic agents with anti-inflammatory activity” (Eur J Med Chem, 2023).
# The source made the active and inactive calls. No cut-off for these calls is given here.
# What was measured:
# Rattus norvegicus [1] = experiment: Antiinflammatory activity against carrageenan-induced paw edema Sprague-Dawley rat model assessed as inhibition of inflammation at 50 mg/kg, po after 5 hrs relative to control; format: functional; set-up: scale not given: the % may be the effect or the level left
# [2] = Acute ulcerogenic activity in Sprague-Dawley male rat assessed as ulcer index at 50 mg/kg/day, po administered for 3 days; format: toxicity, organism-based; conditions: in vivo, 72 h, time 3 day
# [3] = Acute ulcerogenic activity in Sprague-Dawley male rat assessed as average severity of ulcers at 50 mg/kg/day, po administered for 3 days; format: toxicity, organism-based; conditions: in vivo, 72 h, time 3 day
# Rattus norvegicus [4] = experiment: Antiinflammatory activity against carrageenan-induced paw edema Sprague-Dawley rat model assessed as inhibition of inflammation at 50 mg/kg, po after 1 hr relative to control; format: functional; set-up: scale not given: the % may be the effect or the level left
# [5] = Acute ulcerogenic activity in Sprague-Dawley male rat assessed as average number of ulcers at 50 mg/kg/day, po administered for 3 days; format: toxicity, organism-based; conditions: in vivo, 72 h, time 3 day
# A2780 = experiment: Cytotoxicity against human A2780 cells assessed as inhibition in cell growth incubated for 72 hrs by MTT assay; format: functional, cell-based; conditions: A2780, 72 h
# [6] = Acute ulcerogenic activity in Sprague-Dawley male rat by measuring filtration of inflammatory cells in edema at 50 mg/kg/day, po administered for 3 days by hematoxylin and eosin staining method; format: toxicity, organism-based, Stomach; conditions: in vivo, 72 h, time 3 day
# [7] = Acute ulcerogenic activity in Sprague-Dawley male rat assessed as congestion in intact mucosa at 50 mg/kg/day, po administered for 3 days by hematoxylin and eosin staining method; format: toxicity, organism-based, Stomach; conditions: in vivo, 72 h, time 3 day
# Rattus norvegicus [8] = experiment: Antiinflammatory activity against carrageenan-induced paw edema Sprague-Dawley rat model assessed as inhibition of paw edema by measuring edema thickness at 50 mg/kg, po measured after 3 hrs (reference value: 1.41 +/- 0.13 mm); format: functional
# [9] = Acute ulcerogenic activity in Sprague-Dawley male rat assessed as nonactivated glands in intact mucosa at 50 mg/kg/day, po administered for 3 days by hematoxylin and eosin staining method; format: toxicity, organism-based, Stomach; conditions: in vivo, 72 h, time 3 day
# MCF7 = experiment: Cytotoxicity against human MCF7 cells assessed as inhibition in cell growth incubated for 72 hrs by MTT assay; format: functional, cell-based; conditions: MCF7, 72 h
# [10] = Acute ulcerogenic activity in Sprague-Dawley male rat assessed as incidence of ulcer/10 animal at 50 mg/kg/day, po administered for 3 days; format: toxicity, organism-based; conditions: in vivo, 72 h, time 3 day
# HT-29 [11] = experiment: Cytotoxicity against human HT-29 cells assessed as inhibition in cell growth incubated for 72 hrs by MTT assay; format: functional, cell-based; conditions: HT-29, 72 h
# Rattus norvegicus [12] = experiment: Antiinflammatory activity against carrageenan-induced paw edema Sprague-Dawley rat model assessed as inhibition of paw edema by measuring edema thickness at 50 mg/kg, po measured after 1 hr (reference value: 0.71 +/- 0.03 mm); format: functional
# Rattus norvegicus [13] = experiment: Antiinflammatory activity against carrageenan-induced paw edema Sprague-Dawley rat model assessed as inhibition of paw edema by measuring edema thickness at 50 mg/kg, po measured after 5 hrs (reference value: 1.39 +/- 0.11 mm); format: functional
# [14] = target: T1, Prostaglandin G/H synthase 1 (Ovis aries, UniProt P05979); experiment: Inhibition of ovine COX-1
# T1 sequence (P05979 whole entry): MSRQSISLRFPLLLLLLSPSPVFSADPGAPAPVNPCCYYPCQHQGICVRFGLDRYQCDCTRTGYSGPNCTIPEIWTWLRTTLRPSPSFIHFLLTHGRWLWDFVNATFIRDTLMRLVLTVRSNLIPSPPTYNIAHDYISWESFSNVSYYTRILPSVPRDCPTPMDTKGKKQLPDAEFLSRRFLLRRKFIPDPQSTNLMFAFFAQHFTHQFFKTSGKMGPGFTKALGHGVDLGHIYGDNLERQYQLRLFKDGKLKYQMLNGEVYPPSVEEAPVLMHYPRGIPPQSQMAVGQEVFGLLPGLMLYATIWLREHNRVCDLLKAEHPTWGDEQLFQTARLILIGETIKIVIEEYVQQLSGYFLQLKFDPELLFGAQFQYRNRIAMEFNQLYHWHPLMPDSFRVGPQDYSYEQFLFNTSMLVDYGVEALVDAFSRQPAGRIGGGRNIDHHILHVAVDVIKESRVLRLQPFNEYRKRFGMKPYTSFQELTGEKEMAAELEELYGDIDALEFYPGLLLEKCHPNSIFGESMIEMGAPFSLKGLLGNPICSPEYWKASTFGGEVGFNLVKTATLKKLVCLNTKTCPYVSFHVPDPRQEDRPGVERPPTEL
# [15] = Acute ulcerogenic activity in Sprague-Dawley male rat assessed as change in normal glands at 50 mg/kg/day, po administered for 3 days by hematoxylin and eosin staining method; format: toxicity, organism-based, Stomach; conditions: in vivo, 72 h, time 3 day
# Ehrlich [16] = experiment: Antitumor activity against mouse Ehrlich solid carcinoma cells bearing adult male swiss albino mouse assessed as tumor growth inhibition at 50 mg/kg, po administered every other day and observed at 13 days relative to control; format: functional; conditions: 312 h, time 13 day, read-out: TGI
# HT-29 [17] = experiment: Induction of apoptosis in human HT-29 cells assessed as accumulation of cells at late apoptotic stage at 0.25 uM incubated for 24 hrs by Annexin V-FITC/propidium iodide staining based flow cytometry analysis (reference value: 0.2%); format: functional
# Ehrlich [18] = experiment: Antitumor activity against mouse Ehrlich solid carcinoma cells bearing adult male swiss albino mouse assessed as decrease in tumor volume at 50 mg/kg, po administered every other day and observed at 9 days; format: functional, organism-based; conditions: time 9.0 day
# HT-29 [19] = experiment: Induction of apoptosis in human HT-29 cells assessed as accumulation of cells at viable stage at 0.25 uM incubated for 24 hrs by Annexin V-FITC/propidium iodide staining based flow cytometry analysis (Rvb=91.7%); format: functional
# HT-29 [20] = experiment: Anticlonogenic activity against human HT-29 cells assessed as reduction in number of colonies at 0.25 uM incubated for 24 hrs by clonogenic survival assay; format: functional, cell-based
# [21] = Cytotoxicity against human MRC5 cells assessed as inhibition in cell growth incubated for 72 hrs by MTT assay; format: toxicity, cell-based
# [22] = Acute ulcerogenic activity in Sprague-Dawley male rat assessed as change in normal keratin at 50 mg/kg/day, po administered for 3 days by hematoxylin and eosin staining method; format: toxicity, organism-based, Stomach; conditions: in vivo, 72 h, time 3 day
# Ehrlich [23] = experiment: Antitumor activity against mouse Ehrlich solid carcinoma cells bearing adult male swiss albino mouse assessed as decrease in tumor volume at 50 mg/kg, po administered every other day and observed at 13 days; format: functional, organism-based; conditions: time 13.0 day
# Ehrlich [24] = experiment: Antitumor activity against mouse Ehrlich solid carcinoma cells bearing adult male swiss albino mouse assessed as decrease in tumor volume at 50 mg/kg, po administered every other day and observed at 5 days; format: functional, organism-based; conditions: time 5.0 day
# [25] = Selectivity index, ratio of IC50 for cytotoxicity against human MRC5 cells to IC50 for cytotoxicity against human MCF7 cells; conditions: MRC5 cells versus MCF7 cells
# HT-29 [26] = experiment: Induction of apoptosis in human HT-29 cells assessed as accumulation of cells at early apoptotic stage at 0.25 uM incubated for 24 hrs by Annexin V-FITC/propidium iodide staining based flow cytometry analysis (reference value: 0.1%); format: functional
# [27] = Acute ulcerogenic activity in Sprague-Dawley male rat assessed as change in normal lamina propria at 50 mg/kg/day, po administered for 3 days by hematoxylin and eosin staining method; format: toxicity, organism-based, Stomach; conditions: in vivo, 72 h, time 3 day
# HT-29 [28] = experiment: Anti-migration activity in human HT-29 cells assessed as suppression in cell migration at 0.250 uM incubated 48 hrs by wound-healing assay; format: functional, cell-based; conditions: dose 0.25 µM
# Sus scrofa = organism: Sus scrofa; experiment: Inhibition of porcine brain tubulin polymerization at 1 uM by fluorescence-based tubulin polymerization assay
# HT-29 [29] = experiment: Induction of apoptosis in human HT-29 cells assessed as accumulation of cells at necrotic stage at 0.25 uM incubated for 24 hrs by Annexin V-FITC/propidium iodide staining based flow cytometry analysis (reference value: 8.1%); format: functional
# Ehrlich [30] = experiment: Antitumor activity against mouse Ehrlich solid carcinoma cells bearing adult male swiss albino mouse assessed as decrease in tumor weight at 50 mg/kg, po administered every other day and observed at 14 days; format: functional, organism-based; conditions: time 14.0 day
# [31] = Selectivity index, ratio of IC50 for cytotoxicity against human MRC5 cells to IC50 for cytotoxicity against human A2780 cells; conditions: MRC5 cells versus A2780 cells
# Rattus norvegicus [32] = experiment: Antiinflammatory activity against carrageenan-induced paw edema Sprague-Dawley rat model assessed as inhibition of inflammation at 50 mg/kg, po after 3 hrs relative to control; format: functional; set-up: scale not given: the % may be the effect or the level left
# [33] = Selectivity index, ratio of IC50 for cytotoxicity against human MRC5 cells to IC50 for cytotoxicity against human HT-29 cells; conditions: MRC5 cells versus HT-29 cells
compound,measurement,setting,value
Cc1ccc(-c2cc(C(F)(F)F)nn2-c2ccc(S(N)(=O)=O)cc2)cc1 [CELECOXIB],Activity,Rattus norvegicus [1],64.03%
same,UI,[2],8.34
same,Activity,[3],1
same,Activity,Rattus norvegicus [4],61.97%
same,Activity,[5],0.67
same,IC50,A2780,18.1 µM
same,Activity,[6],Non-Toxic
same,Activity,[7],Toxic
same,Activity,Rattus norvegicus [8],0.34 mm
same,Activity,[9],Non-Toxic
same,IC50,MCF7,15.4 µM
same,Activity,[10],6.67%
same,IC50,HT-29 [11],32.5 µM
same,Activity,Rattus norvegicus [12],0.27 mm
same,Activity,Rattus norvegicus [13],0.5 mm
COc1ccc(NC(=O)COc2ccc(N3C(=O)CSC3c3ccccc3)cc2)cc1 (stereo not drawn),IC50,[14],620 nM
same,Activity,[15],Non-Toxic
same,inhibition in vivo at 50 mg/kg,Ehrlich [16],27.4%
same,Activity,Rattus norvegicus [1],59.7%
same,UI,[2],5
same,Activity,[3],1
same,Activity,HT-29 [17],5.3%
same,Activity,Ehrlich [18],Active
same,Activity,Rattus norvegicus [4],15.3%
same,Activity,HT-29 [19],75.8%
same,Activity,[5],0.67
same,IC50,A2780,0.67 µM
same,Activity,HT-29 [20],Active
same,IC50 at 72 h,[21],6.23 µM
same,Activity,[22],Non-Toxic
same,Activity,Ehrlich [23],Active
same,Activity,Ehrlich [24],Active
same,selectivity ratio at 72 h,[25],4.13
same,Activity,Rattus norvegicus [8],0.56 mm
same,Activity,HT-29 [26],9%
same,Activity,[27],Non-Toxic
same,Activity,HT-29 [28],Active
same,inhibition,Sus scrofa,inactive
same,Activity,HT-29 [29],9.8%
same,IC50,MCF7,1.51 µM
same,Activity,[10],3.33%
same,Activity,Ehrlich [30],Active
same,selectivity ratio at 72 h,[31],9.3
same,IC50,HT-29 [11],0.24 µM
same,Activity,Rattus norvegicus [12],0.48 mm
same,Activity,Rattus norvegicus [32],32.7%
same,Activity,Rattus norvegicus [13],0.56 mm
same,selectivity ratio at 72 h,[33],25.9
